In US20240376073A1 (Hoffmann-La Roche Inc., priority 2021, published 2024):
Structures can show the parent of a compound that is named as a salt. Where two headings read alike, the source gives them in different places.

Test system: Acinetobacter baumannii ATCC17961
Assay: Antimicrobial susceptibility testing: 90% growth inhibitory concentration (IC90) determination
Assay type: cell-based
Conditions: Iso-Sensitest broth, growth by OD 600 nm over 16 h, 35±2° C.
Outline: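 Twofold serial dilutions (e.g. 50 to 0.097 μM final) in Iso-Sensitest broth, inoculated at ~5×10^(5) CFU/ml, incubated at 35±2° C. OD600 read every 20 min over 16 h; IC90 derived from growth inhibition during logarithmic growth.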

[1] = Acinetobacter baumannii ATCC17961, read-out: ATCC 17961 IC90
[2] = Acinetobacter baumannii, ATCC17961, 16 h, read-out: ATCC 17961 IC90, Acinetobacter baumannii ATCC17961

Row | Compound | IC90 [1] [µM] | IC90 [2] [µM]
1 | COc1ccc(-c2cnc(C(=O)Nc3ccc(C(=O)N4CCN(C(=O)[C@@H]5[C@H](O)CC[N+]5(C)C)CC4)c(Cl)c3)n2C)c(F)c1F [Example B44, N-[3-chloro-4-[4-[(2S,3R)-3-hydroxy-1,1-dimethyl-pyrrolidin-1-ium-2-carbonyl]piperazine-1-carbonyl]phenyl]-5-(2,3-difluoro-4-methoxy-phenyl)-1-methyl-imidazole-2-carboxamide; formate] |  | 0.42
2 | COc1ccc(-c2cnc(C(=O)Nc3ccc(C(=O)N4CCN(C(=O)CC[N+](C)(C)C)CC4)c(C)c3)n2C)c(F)c1F [Example B8, [3-[4-[4-[[5-(2,3-Difluoro-4-methoxy-phenyl)-1-methyl-imidazole-2-carbonyl]amino]-2-methyl-benzoyl]piperazin-1-yl]-3-oxo-propyl]-trimethyl-ammonium;2,2,2-trifluoroacetate] | 0.18 | 
3 | COc1ccc(-c2cnc(C(=O)Nc3ccc(C(=O)NCc4cn(CCS(C)(=O)=O)[n+](C)c4)c(Cl)c3)n2C)c(F)c1F [Example A24, N-[3-chloro-4-[[1-methyl-2-(2-methylsulfonylethyl)pyrazol-1-ium-4-yl]methylcarbamoyl]phenyl]-5-(2,3-difluoro-4-methoxy-phenyl)-1-methyl-imidazole-2-carboxamide; formate] |  | 0.35
4 | Cn1c(-c2ccc(OCC#N)c(F)c2F)cnc1C(=O)Nc1ccc(C(=O)NCCCNC(=O)C[N+](C)(C)C)c(Cl)c1 [Example A12, [2-[3-[[2-chloro-4-[[5-[4-(cyanomethoxy)-2,3-difluoro-phenyl]-1-methyl-imidazole-2-carbonyl]amino]benzoyl]amino]propylamino]-2-oxo-ethyl]-trimethyl-ammonium formate] | 0.35 | 

Second part, led by results:

Row | IC90 [1] [µM] | Compound | IC90 [2] [µM]
5 | 0.11 | COc1ccc(-c2cnc(C(=O)Nc3ccc(C(=O)N4CCN(C(=O)[C@@H]5C[C@@](C)(O)C[N+]5(C)C)CC4)c(Cl)c3)n2C)c(F)c1F [Example B30, (2S,4R)-2-(4-(2-chloro-4-(5-(2,3-difluoro-4-methoxyphenyl)-1-methyl-1H-imidazole-2-carboxamido)benzoyl)piperazine-1-carbonyl)-4-hydroxy-1,1,4-trimethylpyrrolidin-1-ium formate] | 
6 | 0.031 | Cn1c(-c2ccc(OC(F)F)c(F)c2F)cnc1C(=O)Nc1ccc(C(=O)N2CCN(C(=O)[C@H]3[C@@H]4C[N+](C)(CC(N)=O)C[C@@H]43)CC2)c(Cl)c1 (mixture of isomers) [Example C4, N-[4-[4-[(1R,5S)-3-(2-amino-2-oxo-ethyl)-3-methyl-3-azoniabi-cyclo[3.1.0]-hexane-6-carbonyl]-piperazine-1-carbonyl]-3-chloro-phenyl]-5-[4-(difluoro-methoxy)-2,3-difluoro-phen-yl]-1-methyl-imidazole-2-carboxamide; formate] | 
7 | 0.073 | Cn1c(-c2ccc(OC(F)F)c(F)c2F)cnc1C(=O)Nc1ccc(C(=O)N2CCN(C(=O)C3CC[N+](C)(CC4CNC4)CC3)CC2)c(Cl)c1 (centres unmarked) [Example C13, N-[4-[4-[1-(azet-idin-3-ylmeth-yl)-1-methyl-piper-idin-1-ium-4-carbonyl]piper-azine-1-carbon-yl]-3-chloro-phen-yl]-5-[4-(difluoro-methoxy)-2,3-difluoro-phenyl]-1-methyl-imid-azole-2-carbox-amide; 2,2,2-trifluoroacetate; 2,2,2-trifluoro-acetic acid] | 
8 | 0.54 | Cn1c(-c2ccc(OCF)c(F)c2F)cnc1C(=O)Nc1ccc(C(=O)N2CCN(C(=O)[C@H]3[C@@H]4C[N+](C)(CC(=O)O)C[C@@H]43)CC2)c(Cl)c1 (mixture of isomers) [Example C30, 2-[(1R,5S)-6-[4-[2-chloro-4-[[5-[2,3-difluoro-4-(fluoromethoxy)phenyl]-1-meth-yl-imidazole-2-carbonyl]amino]-benzoyl]piper-azine-1-carbon-yl]-3-methyl-3-azoniabicyclo-[3.1.0]hexan-3-yl]acetic acid; 2,2,2-trifluoro-acetate] | 
